The values below come from US11518758B2, “Heteroarylaminopyrimidine amide autophagy inhibitors and methods of use thereof” (Deciphera Pharmaceuticals, LLC, priority 2019, dated 2022).

Bounds are passed on as bounds.

In this assay the target is T1, ULK1 kinase (Homo sapiens, UniProt O75385).
T1 construct: purchased Eurofins 14-959
T1 sequence (O75385 with tags, fused parts or gaps): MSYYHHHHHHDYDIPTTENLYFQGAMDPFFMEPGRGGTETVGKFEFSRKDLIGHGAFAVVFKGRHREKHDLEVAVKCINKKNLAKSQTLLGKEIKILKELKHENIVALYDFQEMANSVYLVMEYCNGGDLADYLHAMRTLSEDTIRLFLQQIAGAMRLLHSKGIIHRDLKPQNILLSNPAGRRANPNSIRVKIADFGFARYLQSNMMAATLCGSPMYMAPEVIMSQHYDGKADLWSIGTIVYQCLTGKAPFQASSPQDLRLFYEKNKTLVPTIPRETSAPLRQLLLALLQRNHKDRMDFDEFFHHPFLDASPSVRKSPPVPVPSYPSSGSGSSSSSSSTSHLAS
The assay is described as follows: Biochemical assay for ULK1.2 (coupled pyruvate kinase/lactate dehydrogenase assay). The following applies: 19 nM ULK1 (Eurofins), myelin basic protein, 1 mM ATP. The protocol: Example 174. Biochemical Assay for ULK1.2
Activity of ULK1 kinase was determined spectroscopically using a coupled pyruvate kinase/lactate dehydrogenase assay that continuously monitors the ATP hydrolysis-dependent oxidation of NADH (e.g., Schindler et al. Science (2000) 289: 1938-1942). Assays were conducted in 384-well plates (100 uL final volume) using 19 nM ULK1 (Eurofins CAT #14-959), 0.25 mg/mL myelin basic protein, 1.5 units pyruvate kinase, 2.1 units lactate dehydrogenase, 1 mM phosphoenol pyruvate, 0.28 mM NADH and 1 mM ATP in assay buffer (100 mM Tris, pH 7.5, 15 mM MgCl2, 0.5 mM DTT, 0.1% octyl-glucoside, 0.002% (w/v) BSA, and 0.002% Triton X-100). Inhibition of ULK1 was measured by adding serial diluted test compound (final assay concentration of 1% DMSO). A decrease in absorption at 340 nm was monitored continuously for 6 hours at 30° C. on a multi-mode microplate reader (BioTek). The reaction rate was calculated using the 2-3 h time frame. The reaction rate at each concentration of compound was converted to percent inhibition using controls (i.e. reaction with no test compound and reaction with a known inhibitor) and IC50 values were calculated by fitting a four-parameter sigmoidal curve to the data using Prism (GraphPad software).
What is called IC50 is the midpoint of a concentration-inhibition curve. Turning to `CCc1nn(C2CCN(C)CC2)cc1Nc1ncc(Cl)c(NCCCN2CCCCC2=O)n1` [Example 55], the IC50 fell in the range of 100 to 500 nM.

In turn, `[2H]C([2H])([2H])N1CCC(n2cc(Nc3ncc(Br)c(NCCCN4CCCCC4=O)n3)c(C)n2)CC1` [Example 49] returned a concentration for half-maximal inhibition (IC50) of 1 to 25 nM.

`Cc1nn([C@@H]2CCNC2)cc1Nc1ncc(C(F)(F)F)c(NCCCN2CCCC2=O)n1` [Example 169] came in with an IC50 of 100 to 500 nM.

Turning to `CC(C)CN1CC(n2cc(Nc3ncc(C(F)(F)F)c(NCCCN4CCCCCC4=O)n3)cn2)C1` [Example 97], the concentration for half-maximal inhibition (IC50) lay within 1 to 25 nM.

The molecule `Cc1nn([C@@H]2CCN(C)C2)cc1Nc1ncc(Cl)c(NCCCN2CCCCC2=O)n1` [Example 24] showed a half-maximal inhibitory concentration (IC50) of 100 to 500 nM.

On to `CC1(C)CCC(=O)N1CCCNc1nc(Nc2cnn(C3CCN(C4CC4)CC3)c2)ncc1Cl` [Example 149], for which the half-inhibitory concentration (IC50) lay within 100 to 500 nM.

Regarding `CC(C)N1CCC(n2cc(Nc3ncc(Cl)c(NCCCN4CCCCC4=O)n3)cn2)CC1` [Example 5], the IC50 is 25 to 100 nM.

In turn, `Cc1nn(C2CCN(CC(C)C)CC2)cc1Nc1ncc(C(F)(F)F)c(NCCCN2CCCCCC2=O)n1` [Example 89] showed a half-inhibitory concentration (IC50) of 1 to 25 nM.

As for `Cc1nn(C2CCN(CC3CC3)CC2)cc1Nc1ncc(C(F)(F)F)c(NCCCN2CCCCC2=O)n1` [Example 19], the IC50 was 1 to 25 nM.

The molecule `CC1CCN(CCCNc2nc(Nc3cnn(C4CCN(C5CC5)CC4)c3)ncc2Cl)C1=O` (stereo not shown) [Example 155] displayed an IC50 of 100 to 500 nM.

In the case of `Cc1nn([C@@H]2CCN(C(C)C)C2)cc1Nc1ncc(C(F)(F)F)c(NCCCN2CCCCCC2=O)n1` [Example 95], the IC50 fell in the range of 1 to 25 nM.

The molecule `Cc1nn(C2CCN(CCF)CC2)cc1Nc1ncc(C(F)(F)F)c(NCCCN2CCCCC2=O)n1` [Example 59] displayed an IC50 of 25 to 100 nM.

As to `CCN1CCC(n2cc(Nc3ncc(C(F)(F)F)c(NCCCN4CCCC4=O)n3)c(C)n2)CC1` [Example 82], the concentration for half-maximal inhibition (IC50) lay in the range of 100 to 500 nM.

`CN1CCC(n2cc(Nc3ncc(C(F)(F)F)c(NCCCN4CCN(C)C4=O)n3)cn2)CC1` [Example 151]: the concentration for half-maximal inhibition (IC50) was in the range of 1 to 25 nM.

The molecule `CC(C)CN1CC(n2cc(Nc3ncc(Cl)c(NCCCN4CCCCC4=O)n3)cn2)C1` [Example 11] showed an IC50 of 100 to 500 nM.

As to `Cc1nn(CCN2CCCC2)cc1Nc1ncc(Cl)c(NCCCN2CCCC2=O)n1` [Example 162], the IC50 is above 500 nM.

Molecule `Cc1nn([C@@H]2CCN(C(C)C)C2)cc1Nc1ncc(C(F)(F)F)c(NCCCN2CCCCC2=O)n1` [Example 36] had an IC50 of 25 to 100 nM.

`Cc1nn(C2CCN(C(C)C)CC2)cc1Nc1ncc(Cl)c(NCCCN2CCCCCC2=O)n1` [Example 87] returned an IC50 of 25 to 100 nM.

For the molecule `Cc1nn([C@@H]2CCNC2)cc1Nc1ncc(Cl)c(NCCCN2CCCC2=O)n1` [Example 158], the IC50 is above 500 nM.

Take `Cc1nn(CCCN2CCOCC2)cc1Nc1ncc(C(F)(F)F)c(NCCCN2CCCOCC2=O)n1` [Example 112]: the IC50 is 100 to 500 nM.

For `CCc1nn(C2CCN(C(C)C)CC2)cc1Nc1ncc(C(F)(F)F)c(NCCCN2CCCOC2=O)n1` [Example 70], the concentration for half-maximal inhibition (IC50) lay in the range of 25 to 100 nM.

For `CN1CCN(CCCNc2nc(Nc3cnn(C4CCN(C5CC5)CC4)c3)ncc2Cl)C1=O` [Example 148], the IC50 lay in the range of 100 to 500 nM.

With `CC(C)N1CCC(n2cc(Nc3ncc(C(F)(F)F)c(NCCCN4CCCCCC4=O)n3)cn2)CC1` [Example 88], the IC50 was in the range of 1 to 25 nM.

With `[2H]C([2H])([2H])N1CCC(n2cc(Nc3ncc(C(F)(F)F)c(NCCCN4CCCCCC4=O)n3)c(C)n2)CC1` [Example 101], the IC50 lay in the range of 1 to 25 nM.

Regarding `Cc1nn(C2CCN(C(C)C)CC2)cc1Nc1ncc(C(F)(F)F)c(NCCCN2CCCCCC2=O)n1` [Example 85], the IC50 was in the range of 1 to 25 nM.

The molecule `Cc1nn(CCCN(C)C)cc1Nc1ncc(C(F)(F)F)c(NCCCN2CCCCC2=O)n1` [Example 35] displayed a half-inhibitory concentration (IC50) of 25 to 100 nM.

On to `Cc1nn(CCCN2CCOCC2)cc1Nc1ncc(C(F)(F)F)c(NCCCN2CCCCC2=O)n1` [Example 30], for which the IC50 is 100 to 500 nM.

As for `Cc1nn(C2CN(CC(C)C)C2)cc1Nc1ncc(C(F)(F)F)c(NCCCN2CCCC2=O)n1` [Example 128], the IC50 lay in the range of 1 to 25 nM.
